This test concerns the target T1, ΔF508-CFTR (Homo sapiens, UniProt P13569, DEL508-508).
T1 construct: expressed in transfected cells
Briefly: Membrane potential optical (FRET/VIPR) assay, identification of correction compounds. Type of test: cell-based. As to conditions: Table 3, assay not given; for Emax: read-out: % Activity / % Efficacy (relative efficacy). In short, it runs like this: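 NIH3T3 mouse fibroblasts stably expressing ΔF508-CFTR were exposed to compound for 16 h at 37° C in serum-free medium, then loaded with DiSBAC2(3)/CC2-DMPE. After addition of 10 μM forskolin plus 20 μM genistein in Cl⁻-free gluconate bath (pH 7.4), depolarization from Cl⁻ efflux was read by FRET (VIPR II).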

The structures appear in SMILES notation. Where only a bound is given, the exact number is not on record here.

The EC50 is the concentration that produces a half-maximal response.

T1 sequence (P13569 with tags, fused parts or gaps DEL508-508): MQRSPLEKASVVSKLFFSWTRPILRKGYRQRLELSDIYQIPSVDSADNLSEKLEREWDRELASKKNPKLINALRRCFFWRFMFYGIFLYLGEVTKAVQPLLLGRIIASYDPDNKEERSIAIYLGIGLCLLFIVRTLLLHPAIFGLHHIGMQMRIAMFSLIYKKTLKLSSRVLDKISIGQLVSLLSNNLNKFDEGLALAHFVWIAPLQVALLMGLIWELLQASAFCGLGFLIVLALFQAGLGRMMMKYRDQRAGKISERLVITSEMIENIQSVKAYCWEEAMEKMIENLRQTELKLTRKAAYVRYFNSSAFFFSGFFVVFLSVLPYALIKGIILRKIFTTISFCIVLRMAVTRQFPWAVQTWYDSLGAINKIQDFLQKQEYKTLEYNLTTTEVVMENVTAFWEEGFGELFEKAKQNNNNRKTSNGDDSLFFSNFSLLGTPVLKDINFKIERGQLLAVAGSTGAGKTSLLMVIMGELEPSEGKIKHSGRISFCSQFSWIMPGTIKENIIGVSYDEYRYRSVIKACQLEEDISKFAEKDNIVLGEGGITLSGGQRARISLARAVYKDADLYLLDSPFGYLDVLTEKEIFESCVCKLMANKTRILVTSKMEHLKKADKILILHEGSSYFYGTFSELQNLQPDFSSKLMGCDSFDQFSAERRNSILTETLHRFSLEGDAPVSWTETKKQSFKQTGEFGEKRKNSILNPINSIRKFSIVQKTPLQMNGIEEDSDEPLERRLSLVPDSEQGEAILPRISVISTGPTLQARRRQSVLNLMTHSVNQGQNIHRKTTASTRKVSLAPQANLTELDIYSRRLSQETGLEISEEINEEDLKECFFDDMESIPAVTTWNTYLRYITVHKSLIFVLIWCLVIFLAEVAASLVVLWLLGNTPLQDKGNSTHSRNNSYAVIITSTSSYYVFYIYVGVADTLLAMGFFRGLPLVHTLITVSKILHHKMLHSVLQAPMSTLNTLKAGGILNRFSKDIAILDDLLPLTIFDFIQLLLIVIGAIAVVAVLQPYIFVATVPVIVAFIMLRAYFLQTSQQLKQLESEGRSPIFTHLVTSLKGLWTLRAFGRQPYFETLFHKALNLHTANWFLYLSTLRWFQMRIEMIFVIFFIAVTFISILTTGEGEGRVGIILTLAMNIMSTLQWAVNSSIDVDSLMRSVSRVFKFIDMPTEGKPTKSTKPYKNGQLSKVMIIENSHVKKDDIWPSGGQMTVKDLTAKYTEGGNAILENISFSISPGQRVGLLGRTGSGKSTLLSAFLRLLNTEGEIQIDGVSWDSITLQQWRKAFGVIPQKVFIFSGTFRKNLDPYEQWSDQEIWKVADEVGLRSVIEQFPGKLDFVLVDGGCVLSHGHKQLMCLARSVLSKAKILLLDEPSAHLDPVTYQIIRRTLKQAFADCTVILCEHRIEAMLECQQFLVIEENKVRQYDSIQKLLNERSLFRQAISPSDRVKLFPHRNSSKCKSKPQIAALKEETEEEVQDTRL

With `Cc1ccc(C2(C(=O)Nc3ncc(C(c4ccccc4Cl)N4CC[C@@H](O)C4)s3)CC2)cc1` (stereo partly shown) [Example 422], the EC50 was < 10 µM and the Emax is > 100%.
For `O=C(Nc1ncc(C(c2ccccc2Cl)N2CC[C@@H](O)C2)s1)C1(c2ccccc2)CC1` (stereo partly shown) [Example 423], in that order: < 10 µM and > 100%.
For `C[C@@H](CO)NC(c1cnc(NC(=O)C2(c3ccc4c(c3)OCO4)CC2)s1)c1ccccc1Cl` (stereo partly shown) [Example 424], in that order: < 10 µM and > 100%.
As to `CCOCCCNC(c1cnc(NC(=O)C2(c3ccc4c(c3)OCO4)CC2)s1)c1ccccc1Cl` (stereo not shown) [Example 425], the EC50 was < 10 µM and the Emax lay within 25 to 100%.
On the same counts, the results for `CCCN(CCO)C(c1cnc(NC(=O)C2(c3ccc4c(c3)OCO4)CC2)s1)c1ccccc1Cl` (stereo not shown) [Example 426] are < 10 µM and 25 to 100%.
On the same counts, the results for `O=C(Nc1ncc(C(NCCC2=CCCCC2)c2ccccc2Cl)s1)C1(c2ccc3c(c2)OCO3)CC1` (stereo not shown) [Example 427] are < 10 µM and > 100%.
For `CC(C)(C)CCNC(c1cnc(NC(=O)C2(c3ccc4c(c3)OCO4)CC2)s1)c1ccccc1Cl` (stereo not shown) [Example 428], in that order: < 10 µM and > 100%.
On to `CC1(C)CC(NC(c2cnc(NC(=O)C3(c4ccc5c(c4)OCO5)CC3)s2)c2ccccc2Cl)CCO1` (stereo not shown) [Example 429], for which the EC50 was < 10 µM and the Emax was > 100%.
As for `O=C(Nc1ncc(C(NCCc2ccccn2)c2ccccc2Cl)s1)C1(c2ccc3c(c2)OCO3)CC1` (stereo not shown) [Example 430], the EC50 was < 10 µM and the Emax is > 100%.
On the same counts, the results for `CC(CO)(CO)NC(c1cnc(NC(=O)C2(c3ccc4c(c3)OCO4)CC2)s1)c1ccccc1Cl` (stereo not shown) [Example 431] are < 10 µM and > 100%.
For `CCNC(c1cnc(NC(=O)C2(c3ccc4c(c3)OCO4)CC2)s1)c1ccccc1Cl` (stereo not shown) [Example 432], in that order: < 10 µM and > 100%.
For `O=C(Nc1ncc(C(NC(CO)CO)c2ccccc2Cl)s1)C1(c2ccc3c(c2)OCO3)CC1` (stereo not shown) [Example 433], in that order: < 10 µM and > 100%.
With `O=C(Nc1ncc(C(NC[C@@H]2CCCO2)c2ccccc2Cl)s1)C1(c2ccc3c(c2)OCO3)CC1` (stereo partly shown) [Example 434], the EC50 was < 10 µM and the Emax is > 100%.
For `CCCN(CC1CC1)C(c1cnc(NC(=O)C2(c3ccc4c(c3)OCO4)CC2)s1)c1ccccc1Cl` (stereo not shown) [Example 435], in that order: < 10 µM and > 100%.
On the same counts, the results for `CC(=O)NCCNC(c1cnc(NC(=O)C2(c3ccc4c(c3)OCO4)CC2)s1)c1ccccc1Cl` (stereo not shown) [Example 436] are < 10 µM and > 100%.
For the compound `C[C@@H](CO)NC(c1cnc(NC(=O)C2(c3ccc4c(c3)OCO4)CC2)s1)c1ccccc1Cl` (stereo partly shown) [Example 437], the 50% effective concentration (EC50) is < 10 µM.
Turning to `CC(C)C[C@H](CO)NC(c1cnc(NC(=O)C2(c3ccc4c(c3)OCO4)CC2)s1)c1ccccc1Cl` (stereo partly shown) [Example 438], the EC50 was < 10 µM and the Emax was > 100%.
`COCCNC(c1cnc(NC(=O)C2(c3ccc4c(c3)OCO4)CC2)s1)c1ccccc1Cl` (stereo not shown) [Example 439]: the EC50 was < 10 µM and the Emax was > 100%.
On to `CC(C)[C@H](CO)NC(c1cnc(NC(=O)C2(c3ccc4c(c3)OCO4)CC2)s1)c1ccccc1Cl` (stereo partly shown) [Example 440], for which the EC50 was < 10 µM and the Emax is > 100%.
For `O=C(Nc1ncc(C(c2ccccc2Cl)N2CC[C@@H](O)C2)s1)C1(c2cccc(C(F)(F)F)c2)CC1` (stereo partly shown) [Example 441], in that order: < 10 µM and 25 to 100%.
Take `O=C(Nc1ncc(C(c2ccccc2Cl)N2CC[C@@H](O)C2)s1)C1(c2ccccc2C(F)(F)F)CC1` (stereo partly shown) [Example 442]: the EC50 was < 10 µM and the Emax was 25 to 100%.
For `COc1ccccc1C1(C(=O)Nc2ncc(C(c3ccccc3Cl)N3CC[C@@H](O)C3)s2)CC1` (stereo partly shown) [Example 443], in that order: < 10 µM and 25 to 100%.

The values above are taken from patent US7977322B2 (Vertex Pharmaceuticals Incorporated, priority 2004, dated 2011).
